Measured values from patent US9388215B2, “Compositions and methods of using islet neogenesis peptides and analogs thereof” (SHENZHEN HIGHTIDE BIOPHARMACEUTICAL, LTD., priority 2013, dated 2016).

Experiments:
[1] = Peptide stability in mouse plasma; format: in vitro ADME; conditions: 100 μg/mL, 37° C.; FIG. 3, 5, 14
Description: (§1) The stability of peptides was also tested in mouse and human plasma. Briefly, a certain amount of peptides and eucatropine powder (positive control) was accurately weighed. Test compounds were dissolved in 50% methanol-water solution and diluted to 20 mg/mL, and eucatropine was dissolved in dimethylsulfoxide (DMSO) and diluted to 10 mM, as a stock solution. Eucatropine stock solution was diluted to 0.2 mM with DMSO as a working solution. A stop reagent was prepared containing 200 ng/mL midazolam and tolbutamide in acetonitrile. A volume of 300 μL of stop solution was added to each well of a 96-well deep-well plate placed on ice beforehand.
(§2) For the stability studies, peptides and eucatropine were spiked into plasma respectively, mixed well, and then 100 μL of each mixture solution was transferred into the pre-cooled stop reagent as 0 time point sample. The remaining mixtures were incubated in a 37° C. water bath with shaking at 100 rpm (n=2). The final incubation concentration was 1 for eucatropine and 100 μg/mL for all test compounds.
(§3) At desired time points, 100 μL of incubation mixture was transferred to the stop reagent to precipitate proteins. Samples were vortexed and centrifuged at RCF 5000×g for 10 minutes, and supernatant was transferred to a test plate. The samples were analyzed by LC-MS/MS.
(§4) Slope was calculated by plotting the natural logarithm of the percentage of remaining amount of test compounds and time, and T1/2 was calculated in accordance with the following formula.
For stability in mouse plasma, the incubation time was 0, 5, 15, 30 and 60 min for Peptide 1 and eucatropine; 0, 15, 30, 60, 120, 240 and 480 min for Peptide 12, Peptide 16 and Peptide 29.
In another stability study in mouse plasma, the incubation time was 0, 30, 60 and 120 min for Peptide 2 and eucatropine; 0, 30, 60, 120, 240 and 960 min for Peptide 52 and Peptide 54.
as §1, with “tested in rat, mouse and” for “tested in mouse and”
as §2, with “was 1 μM for eucatropine” for “was 1 for eucatropine”
For stability in mouse plasma, the incubation time was 0, 15, 30, 60 and 120 min for Peptide 1 and eucatropine; 0, 15, 30, 60, 120, and 240 min for Peptide 31.

[2] = Peptide stability in human plasma; format: in vitro ADME; conditions: 100 μg/mL, 37° C.; FIG. 4, 15
Description: as §1, §2, §3, §4
For stability in human plasma, the incubation time was 0, 30, 60 and 120 min for Peptide 1, Peptide 12, Peptide 16 and eucatropine.
The stability of peptides was also tested in rat, mouse and human plasma. Briefly, a certain amount of peptides and eucatropine powder (positive control) was accurately weighed. Test compounds were dissolved in 50% methanol-water solution and diluted to 20 mg/mL, and eucatropine was dissolved in dimethylsulfoxide (DMSO) and diluted to 10 mM, as a stock solution. Eucatropine stock solution was diluted to 0.2 mM with DMSO as a working solution. […]

[3] = Peptide stability in rat plasma; format: in vitro ADME; conditions: 100 μg/mL, 37° C.; FIG. 12, 13
Description: as §1, with “tested in rat, mouse and” for “tested in mouse and”
as §2, with “was 1 μM for eucatropine” for “was 1 for eucatropine”
as §3, §4
For stability in rat plasma, the incubation time was 0, 15, 30, 60 and 120 min for Peptide 1 and eucatropine, and 0, 15, 30, 60, 120, and 240 min for Peptide 12, Peptide 16, Peptide 29 and Peptide 31.
In another stability study in rat plasma, the incubation time was 0, 30, 60 120 and 240 min for Peptide 2, Peptide 52, Peptide 64 and eucatropine.

[4] = Pharmacokinetics in SD rats after single subcutaneous dose (Example X); format: in vivo, rat; conditions: plasma, sc, male Sprague-Dawley rat, subcutaneous, 25 mg/kg
Description: After 7 days acclimation, a total of 15 male Sprague-Dawley (SD) rats (body weight: 230 to 270 g) in good health from Sino-British SIPPR/BK Lab Animal Ltd, Shanghai, were used in the study. All peptides, Peptide 1, Peptide 12, Peptide 16, Peptide 29 or Peptide 31, were dissolved in sterile normal saline respectively to yield the desired final concentrations and were administered via single subcutaneous (sc) dose.
Three animals in each group were used for blood collection at the time point of 5 min, 15 min, 30 min, 1 h, 2 h, 4 h, 6 h, 8 h and 24 h post-dose. Blood samples (approximately 400 μL) were collected and placed into tubes containing EDTA-K2 (dipotassium ethylene diamine tetraacetic acid) and centrifuged at 8000 rpm for 6 minutes at 4° C. to separate plasma from the samples. The resulting plasma was stored frozen at −80° C. until being analyzed.
Plasma concentrations of peptides were determined using tandem mass spectrometry (LC-MS/MS) analysis. A non-compartmental module of WinNonlin® Professional 5.2 (Pharsight; St. Louis Mo.) was used to calculate PK parameters. AUC(0-t) represents area under the curve from the time of dosing to the time of the last observation, the AUC(0-∞) represents area under the curve from the time of dosing to infinity, and the Cmax represents maximum concentration detected.

[5] = format: physicochemical; conditions: pH 7.4
Description: Peptide stability in buffers was tested for INGAP-PP and selected analogs. 10 mg/mL of Peptide 1, Peptide 12, Peptide 16, Peptide 29 or Peptide 31 was dissolved in isotonic buffers with pH ranging from 4.0 to 8.0. […] Peptide 12 and Peptide 29 were stable in an isotonic phosphate buffer (pH 7.4) for more than 90 days at 4° C. (there was no sign of degradation at 90 days sample check point), and 60 days at 25° C.

AUC(0-t) ([4]; read-out: AUC(0-t)): 14400 ± 1010 ng·h/mL | AUC(0-inf) ([4]; read-out: AUC(0-∞)): 14400 ± 1000 ng·h/mL | Cmax ([4]; read-out: Cmax): 16300 ± 2520 ng/mL | time stable in isotonic phosphate buffer (pH 7.4) at 4° C. [5]: more than 90 days | time stable in isotonic phosphate buffer (pH 7.4) at 25° C. [5]: 60 days
Substance: Ac-IGLHDPSHGTLPAGS-NH2 [Peptide 29, Ac-IGLHDPSHGTLPAGS-NH2]
stability in mouse plasma [1]: exhibited good stability in mouse plasma and were more stable than INGAP-PP | stability in human plasma [2]: exhibited good stability in human plasma and were significantly more stable than INGAP-PP | stability in rat plasma [3]: exhibited good stability in rat plasma and were more stable than INGAP-PP
